The assay relates to Human alphaherpesvirus 2. Briefly: Antiherpetic activity against HSV2 in african green monkey Vero cells assessed as inhibition of virus-induced cytopathic effect. It counts as functional. The settings on record: Human alphaherpesvirus 2, Vero.

Structures are written as SMILES.

Take `CC(C)=CCc1c(O)c2c(c3c1OC(=O)C[C@H]3c1ccccc1)O[C@@H](C)[C@@H](C)C2=O` [CALOPOLYANOLIDE D]: the GI50 was greater than 250 mg/L. In the case of `CC(C)=CCc1c(O)c2c(c3c1OC(=O)C[C@H]3c1ccccc1)O[C@@H](C)[C@H](C)C2=O` [CALOPOLYANOLIDES C], the GI50 is greater than 250 mg/L.

The values above are taken from ChEMBL document CHEMBL1148906, “Two pyranocoumarins from the seeds of Calophyllum polyanthum” (2004).
